Measured values published in patent US20260092061A1, “COMPOUNDS FOR TARGETED PROTEIN DEGRADATION” (Amphista Therapeutics Limited, priority 2022, published 2026).

How the values were obtained:
BRD9 [1] = molecular target: T1, BRD9 (Homo sapiens, UniProt Q9H8M2); assay: Degradation of BRD9 (IF), immunofluorescence in MV4-11 cells, 24 hours (Assay Protocol 2); assay type: cell-based; design: A suspension of MV4-11 cells (ATCC CRL-9591) was prepared; host or cells: MV4-11
T1 sequence (Q9H8M2 1-597): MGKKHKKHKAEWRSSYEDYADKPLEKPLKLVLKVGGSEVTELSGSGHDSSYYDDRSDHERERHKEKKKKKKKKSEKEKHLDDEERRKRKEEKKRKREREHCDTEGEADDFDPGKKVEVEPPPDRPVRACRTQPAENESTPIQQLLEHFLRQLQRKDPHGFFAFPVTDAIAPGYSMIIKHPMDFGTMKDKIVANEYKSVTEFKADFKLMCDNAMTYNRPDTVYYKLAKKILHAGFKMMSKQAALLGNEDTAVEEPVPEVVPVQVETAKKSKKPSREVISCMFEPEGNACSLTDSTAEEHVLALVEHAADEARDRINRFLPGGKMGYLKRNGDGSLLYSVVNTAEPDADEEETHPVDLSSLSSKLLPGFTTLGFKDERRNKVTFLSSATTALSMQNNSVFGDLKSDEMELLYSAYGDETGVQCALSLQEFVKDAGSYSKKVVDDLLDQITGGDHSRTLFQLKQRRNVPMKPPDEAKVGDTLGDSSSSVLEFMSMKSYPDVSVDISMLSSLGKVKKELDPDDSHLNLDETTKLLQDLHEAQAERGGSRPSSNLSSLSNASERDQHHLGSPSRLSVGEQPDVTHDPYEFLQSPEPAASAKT
Procedure, shortened: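 % BRD9 remaining, scaled between DMSO (high) and 100 nM CFT-8634 (low) control wells, derives from mean Alexa 647 contrast in central nuclei by high-content imaging. MV4-11 cells had 24 h compound exposure at 37° C. before PFA fixation, Triton permeabilisation and anti-BRD9 E4Q3F immunostaining.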

BRD9 [2] = molecular target: T1, BRD9; assay: BRD9 degradation, HiBiT-BRD9 KI HEK293 (LgBiT) cells, NanoGlo Lytic Endpoint assay (Assay Protocol 1); assay type: cell-based; conditions: BRD9 degradation; for Dmax at 1 µM / Dmax: HEK293; for Dmax at 1 µM: 1 μM compound at 6 h of treatment, read-out: Assay 1 Dmax
Procedure, shortened: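 HiBiT-tagged BRD9 knock-in HEK293 (LgBiT) cells exposed to compounds for 6 h at 37 °C, 5% CO2. Residual BRD9 measured by HiBiT lytic luminescence. % BRD9 remaining normalised to DMSO-treated cells (high) and no-cell wells (low).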

[3] = MV4-11, 24 h, Table 2, BRD9 degradation (IF), Assay Protocol 2, MV4-11 cells, read-out: Assay 2 DCmax
[4] = Table 2, BRD9 degradation (IF), Assay Protocol 2, MV4-11 cells, read-out: Assay 2 DC50
[5] = Table 2, Assay Protocol 1, 6 h of treatment, read-out: Assay 1 DC50
[6] = Assay protocol 2, BRD9 degradation, read-out: DC50
[7] = MV4-11, Assay protocol 2, BRD9 degradation, read-out: Dmax
[8] = Assay protocol 1, read-out: DC50
[9] = Assay protocol 1, read-out: Dmax
[10] = MV4-11, Table 4, BRD9 degradation, determined according to Assay Protocol 2, read-out: Dmax^2
[11] = Table 4, BRD9 degradation, determined according to Assay Protocol 2, read-out: DC50^2
[12] = Table 4, determined according to Assay Protocol 1, read-out: Dmax^1

DC50 (BRD9 [1]; [6]) [µM] | Dmax (BRD9 [1]; [7]) [%] | DC50 (BRD9 [2]; [8]) [µM] | Dmax (BRD9 [2]; [9]) [%] | SMILES | further results
0.01 to 0.025 | > 75 | 0.025 to 1 | > 75 | COc1cc(-c2cn(C)c(=O)c(C)c2C)cc(OC)c1CN1CCN(C(=O)c2cccc(C3CCCN3C(=O)/C(C#N)=C/C(C)(C)C)c2)CC1 (mixture of isomers) [Compound B35, (E/Z)-2-(2-(3-(4-(2,6-dimethoxy-4-(1,4,5-trimethyl-6-oxo-1,6-dihydropyridin-3-yl)benzyl)piperazine-1-carbonyl)phenyl)pyrrolidine-1-carbonyl)-4,4-dimethylpent-2-enenitrile] | 
 | 40 to 70 | 0.01 to 0.025 | 40 to 70 | COc1cc(-c2cn(C)c(=O)c(C)c2C)cc(OC)c1CN1CCN(c2ccc(C3CCCN3C(=O)/C(C#N)=C/C(C)(C)C)cc2)CC1 (mixture of isomers) [Compound B42, (E/Z)-2-(2-(4-(4-(2,6-dimethoxy-4-(1,4,5-trimethyl-6-oxo-1,6-dihydropyridin-3-yl)benzyl)piperazin-1-yl)phenyl)pyrrolidine-1-carbonyl)-4,4-dimethylpent-2-enenitrile] | 
0.025 to 1 | 40 to 70 |  | 25 to 40 | COc1cc(-c2cn(C)c(=O)c(C)c2C)cc(OC)c1CN1CCN(c2cccc3c2CCN(C(=O)/C(C#N)=C/c2cccc(Br)n2)C3C)CC1 (single isomer, unassigned) [Compound C28, (E/Z)-3-(6-bromopyridin-2-yl)-2-(5-(4-(2,6-dimethoxy-4-(1,4,5-trimethyl-6-oxo-1,6-dihydropyridin-3-yl)benzyl)piperazin-1-yl)-1-methyl-1,2,3,4-tetrahydroisoquinoline-2-carbonyl)acrylonitrile] | 

The next lines start with the compound.

SMILES | DC50 (BRD9 [1]; [6]) [µM] | Dmax (BRD9 [1]; [7]) [%] | DC50 (BRD9 [2]; [8]) [µM] | Dmax (BRD9 [2]; [9]) [%] | further results
COc1cc(-c2cn(C)c(=O)c3cc(C(=O)NCCCCCOc4ccc5c(c4)CCN(C(=O)/C(C#N)=C/c4nccs4)C5C)sc23)cc(OC)c1CN(C)C (mixture of isomers) [Compound A75, (E/Z)—N-(5-((2-(2-cyano-3-(thiazol-2-yl)acryloyl)-1-methyl-1,2,3,4-tetrahydroisoquinolin-6-yl)oxy)pentyl)-7-(4-((dimethylamino)methyl)-3,5-dimethoxyphenyl)-5-methyl-4-oxo-4,5-dihydrothieno[3,2-c]pyridine-2-carboxamide] |  |  |  |  | Dmax (BRD9 [1]; [3]): > 75%; DC50 (BRD9 [1]; [4]): 0.00125 to 0.01 µM; Dmax at 1 µM (BRD9 [2]; Table 2, Assay Protocol 1): 40 to 70%; DC50 (BRD9 [2]; [5]): 0.025 to 0.3 µM
COc1cc(-c2cn(C)c(=O)c(C)c2C)cc(OC)c1CN1CC2CC(C1)N2Cc1cccc(C2CCCN2C(=O)/C(C#N)=C/c2cccc(Br)n2)c1 (mixture of isomers) [Compound B12, (E/Z)-3-(6-bromopyridin-2-yl)-2-(2-(3-((3-(2,6-dimethoxy-4-(1,4,5-trimethyl-6-oxo-1,6-dihydropyridin-3-yl)benzyl)-3,6-diazabicyclo[3.1.1]heptan-6-yl)methyl)phenyl)pyrrolidine-1-carbonyl)acrylonitrile] | 0.00125 to 0.01 | > 75 | 0.01 to 0.025 | > 75 | 
COc1cc(-c2cn(C)c(=O)c(C)c2C)cc(OC)c1CN1CCN(C(=O)C2CC(C(C)C)CN(C(=O)/C(C#N)=C/C(C)(C)C)C2)CC1 (stereo not shown) [Compound B207] |  |  |  |  | Dmax (BRD9 [1]; [10]): > 70%; DC50 (BRD9 [1]; [11]): 0.025 to 0.2 µM; Dmax (BRD9 [2]; [12]): > 70%; DC50 (BRD9 [2]; Table 4, determined according to Assay Protocol 1, read-out: DC50^1): 0.025 to 0.2 µM
COc1cc(-c2cn(C)c(=O)c(C)c2C)cc(OC)c1C(=O)N(C)C1CCN(C(=O)/C(C#N)=C/C(C)(C)C)CC1 [BRD9u] |  |  |  |  | Dmax (BRD9 [1]; [10]): 30 to 50%; DC50 (BRD9 [1]; [11]): < 0.025 µM; Dmax (BRD9 [2]; [12]): 30 to 50%
COc1cc(-c2cn(C)c(=O)c(C)c2C)cc(OC)c1CN1CCN(Cc2cccc3c2CCN(C(=O)/C(C#N)=C/C(C)(C)N2CCN(C4COC4)CC2)C3C)C2(CC2)C1 (mixture of isomers) [Compound B126, (E/Z)-2-(5-((7-(2,6-dimethoxy-4-(1,4,5-trimethyl-6-oxo-1,6-dihydropyridin-3-yl)benzyl)-4,7-diazaspiro[2.5]octan-4-yl)methyl)-1-methyl-1,2,3,4-tetrahydroisoquinoline-2-carbonyl)-4-methyl-4-(4-(oxetan-3-yl)piperazin-1-yl)pent-2-enenitrile] | 0.00125 to 0.01 | 70 to 75 | 0.00125 to 0.01 | > 75 | 
COc1cc(-c2cn(C)c(=O)c3cnccc23)cc(OC)c1CN1CC2CCC(C1)N2Cc1cccc2c1CCN(C(=O)/C(C#N)=C/C(C)(C)C)C2C (mixture of isomers) [Compound A48, (E/Z)-2-(5-((3-(2,6-dimethoxy-4-(2-methyl-1-oxo-1,2-dihydro-2,7-naphthyridin-4-yl)benzyl)-3,8-diazabicyclo[3.2.1]octan-8-yl)methyl)-1-methyl-1,2,3,4-tetrahydroisoquinoline-2-carbonyl)-4,4-dimethylpent-2-enenitrile] |  |  |  |  | Dmax (BRD9 [1]; [3]): 40 to 70%; DC50 (BRD9 [1]; [4]): < 0.00125 µM; Dmax at 1 µM (BRD9 [2]; Table 2, Assay Protocol 1): > 75%; DC50 (BRD9 [2]; [5]): 0.00125 to 0.01 µM
COc1cccc(/C=C(\C#N)C(=O)N2CCc3c(CN4CCN(Cc5c(OC)cc(-c6cn(C)c(=O)c(C)c6C)cc5OC)CC4)cccc3C2C)n1 (mixture of isomers) [Compound A67, (E/Z)-2-(5-((4-(2,6-dimethoxy-4-(1,4,5-trimethyl-6-oxo-1,6-dihydropyridin-3-yl)benzyl)piperazin-1-yl)methyl)-1-methyl-1,2,3,4-tetrahydroisoquinoline-2-carbonyl)-3-(6-methoxypyridin-2-yl)acrylonitrile] |  |  |  |  | Dmax (BRD9 [1]; [3]): 40 to 70%; Dmax at 1 µM (BRD9 [2]; Table 2, Assay Protocol 1): 40 to 70%; DC50 (BRD9 [2]; [5]): 0.00125 to 0.01 µM
COc1ccnc(/C=C(\C#N)C(=O)N2CCc3c(CN4CCN(Cc5c(OC)cc(-c6cn(C)c(=O)c(C)c6C)cc5OC)CC4)cccc3C2C)c1 (mixture of isomers) [Compound B52, (E/Z)-2-(5-((4-(2,6-dimethoxy-4-(1,4,5-trimethyl-6-oxo-1,6-dihydropyridin-3-yl)benzyl)piperazin-1-yl)methyl)-1-methyl-1,2,3,4-tetrahydroisoquinoline-2-carbonyl)-3-(4-methoxypyridin-2-yl)acrylonitrile] | 0.025 to 1 | 40 to 70 | < 0.00125 | 70 to 75 | 
COc1cc(-c2cn(C)c(=O)c(C)c2C)cc(OC)c1CN1CC2CCC(C1)N2Cc1cccc2c1CCN(C(=O)/C(C#N)=C/C(C)(C)C)C2C (mixture of isomers) [Compound B3, (E/Z)-2-(5-((3-(2,6-dimethoxy-4-(1,4,5-trimethyl-6-oxo-1,6-dihydropyridin-3-yl)benzyl)-3,8-diazabicyclo[3.2.1]octan-8-yl)methyl)-1-methyl-1,2,3,4-tetrahydroisoquinoline-2-carbonyl)-4,4-dimethylpent-2-enenitrile] | 0.01 to 0.025 | > 75 | 0.01 to 0.025 | > 75 | 
COc1cc(-c2cn(C)c(=O)c(C)c2C)cc(OC)c1CN1CCN(C(=O)C2CCCN(C(=O)/C(C#N)=C/c3nccs3)C2)CC1 (stereo not shown) [Compound B205] |  |  |  |  | Dmax (BRD9 [1]; [10]): 50 to 70%; DC50 (BRD9 [1]; [11]): 0.025 to 0.2 µM; Dmax (BRD9 [2]; [12]): 30 to 50%
COc1cc(-c2cn(C)c(=O)c(C)c2C)cc(OC)c1CN1C[C@H](C)N(Cc2cccc3c2CCN(C(=O)/C(C#N)=C/C(C)(C)C)C3C)C[C@H]1C (mixture of isomers) [Compound B122, (E/Z)-2-(5-(((2S,5R)-4-(2,6-dimethoxy-4-(1,4,5-trimethyl-6-oxo-1,6-dihydropyridin-3-yl)benzyl)-2,5-dimethylpiperazin-1-yl)methyl)-1-methyl-1,2,3,4-tetrahydroisoquinoline-2-carbonyl)-4,4-dimethylpent-2-enenitrile] | 0.01 to 0.025 | > 75 | 0.00125 to 0.01 | > 75 | 
COc1cc(-c2cn(C)c(=O)c(C)c2C)cc(OC)c1CN1CCN(Cc2cccc3c2CCN(C(=O)/C(C#N)=C/C(C)C)C3C)CC1 (mixture of isomers) [Compound A43] |  |  |  |  | Dmax (BRD9 [1]; [3]): 40 to 70%; DC50 (BRD9 [1]; [4]): < 0.00125 µM; Dmax at 1 µM (BRD9 [2]; Table 2, Assay Protocol 1): 70 to 75%; DC50 (BRD9 [2]; [5]): 0.00125 to 0.01 µM
